In the supplement of paper PMC11061612:

How the values were obtained:
Test in all cases: combination Emax (second highest fraction inhibited in the dose matrix, 72 h); higher = more inhibition; extreme values may be limits of the assay
[1] = system: NCI-H23 (Lung Adenocarcinoma)
Outline: (§1)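 After 24 hours at 37°C and 5% CO2 in 1536-well plates, cells in DMEM/F12 or RPMI plus 10% FBS received two-drug dose matrices for 72 hours. Viability came from CellTiter-Glo 2.0 luminescence and was scaled as inhibition, anchored at 0 by vehicle wells and at 1 by blank wells. Combination Emax is taken as the second-highest inhibition in the matrix, and Bliss excess as the observed combination effect less EA + EB − EA·EB, with EA and EB the single-agent effects.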

[2] = system: HSC-39 (Gastric Carcinoma)
Outline: as §1

[3] = system: RERF-GC-1B (Gastric Carcinoma)
Outline: as §1

[4] = system: COLO-680N (Esophageal Squamous Cell Carcinoma)
Outline: as §1

[5] = system: FADU (Head and Neck Carcinoma)
Outline: as §1

[6] = system: 23132-87 (Gastric Carcinoma)
Outline: as §1

[7] = system: SU-DHL-10 (B-Cell Non-Hodgkin's Lymphoma)
Outline: as §1

[8] = system: KE-37 (T-Lymphoblastic Leukemia)
Outline: as §1

GB-1 (Glioblastoma) = system: GB-1 (Glioblastoma)
Outline: as §1

WM278 (Melanoma) = system: WM278 (Melanoma)
Outline: as §1

LN-229 (Glioblastoma) = system: LN-229 (Glioblastoma)
Outline: as §1

[9] = system: CAL-62 (Thyroid Gland Carcinoma)
Outline: as §1

SF268 (Low Grade Glioma) = system: SF268 (Low Grade Glioma)
Outline: as §1

[10] = system: NCI-H2342 (Lung Adenocarcinoma)
Outline: as §1

[11] = system: L-1236 (Hodgkin's Lymphoma)
Outline: as §1

[12] = system: MFE-280 (Endometrial Carcinoma)
Outline: as §1

[13] = system: TE-8 (Esophageal Squamous Cell Carcinoma)
Outline: as §1

A2058 (Melanoma) = system: A2058 (Melanoma)
Outline: as §1

[14] = system: REH (B-Lymphoblastic Leukemia)
Outline: as §1

[15] = system: PC-3_[JPC-3] (Lung Adenocarcinoma)
Outline: as §1

| SMILES | combination Emax [1] | combination Emax [2] | combination Emax [3] | combination Emax [4] | combination Emax [5] | combination Emax [6] | combination Emax [7] | combination Emax [8] | combination Emax (GB-1 (Glioblastoma)) | combination Emax (WM278 (Melanoma)) | combination Emax (LN-229 (Glioblastoma)) | combination Emax [9] | combination Emax (SF268 (Low Grade Glioma)) | combination Emax [10] | combination Emax [11] | combination Emax [12] | combination Emax [13] | combination Emax (A2058 (Melanoma)) | combination Emax [14] | combination Emax [15] |
| --- | --- | --- | --- | --- | --- | --- | --- | --- | --- | --- | --- | --- | --- | --- | --- | --- | --- | --- | --- | --- |
| COc1cccc2c1C(=O)c1c(O)c3c(c(O)c1C2=O)C[C@@](O)(C(=O)CO)C[C@@H]3O[C@H]1C[C@H](N)[C@H](O)[C@H](C)O1 [Doxorubicin] + Cc1cc2ncnn2cc1Nc1ncc2c(n1)n(C1CCOCC1)c(=O)n2C [AZD7648] (first compound max 1 µM, 7x7, partner max 10 µM) | 0.588 | 0.867 | 0.779 | 0.67 | 0.928 | 0.82 | 0.975 | 1 | 0.418 | 0.631 | 0.609 | 0.817 | 0.538 | 0.349 | 0.682 | 0.835 | 0.774 | 0.583 | 1 | 0.57 |
| COc1cc2ncnc(Nc3ccc(F)c(Cl)c3)c2cc1OCCCN1CCOCC1 [Gefitinib] + CC(C)n1c(=O)n(C)c2cnc3cc(F)c(-c4ccc(OCCCN5CCCCC5)nc4)cc3c21 [AZD1390] (first compound max 10 µM, 7x7, partner max 0.3 µM) | 0.107 | 0.217 | 0.265 | 0.213 | 0.471 | 0.127 | 0.723 | 0.357 | 0.0404 | 0.0959 | 0.0879 | 0 | 0.155 | 0.0812 | 0.254 | 0.246 | 0.225 | 0.119 | 0.145 | 0.67 |
| CS(=O)(=O)CCNCc1ccc(-c2ccc3ncnc(Nc4ccc(OCc5cccc(F)c5)c(Cl)c4)c3c2)o1 [Lapatinib] + C[C@@H](Oc1cc(-c2cnn(C3CCNCC3)c2)cnc1N)c1c(Cl)ccc(F)c1Cl [Crizotinib] (first compound max 10 µM, 7x7, partner max 10 µM) | 0.645 | 0.981 | 0.951 | 0.483 | 0.931 | 0.594 | 1 | 0.975 | 0.843 | 0.768 | 0.334 | 0.776 | 0.902 | 0.43 | 0.984 | 0.88 | 0.71 | 0.991 | 0.964 | 0.922 |
| CC(=O)c1c(C)c2cnc(Nc3ccc(N4CCNCC4)cn3)nc2n(C2CCCC2)c1=O [Palbociclib] + CC1(C)CCC(CN2CCN(c3ccc(C(=O)NS(=O)(=O)c4ccc(NCC5CCOCC5)c([N+](=O)[O-])c4)c(Oc4cnc5[nH]ccc5c4)c3)CC2)=C(c2ccc(Cl)cc2)C1 [Venetoclax] (first compound max 10 µM, 7x7, partner max 1 µM) | 0.168 | 0.633 | 0.0488 | 0.0584 | 0.17 | 0.17 | 1 | 0.776 | 0.15 | 0.185 | 0.0912 | 0.151 | 0.254 | 0.0497 | 0.611 | 0.0835 | 0.286 | 0.0912 | 0.825 | 0.176 |
| CC(=O)c1c(C)c2cnc(Nc3ccc(N4CCNCC4)cn3)nc2n(C2CCCC2)c1=O [Palbociclib] + Cc1c2c(nn1C)CSCc1cc(n(C)n1)CSc1cc(c3ccccc3c1)OCCCc1c(C(=O)O)n(C)c3c-2c(Cl)ccc13 [AZD5991] (first compound max 10 µM, 7x7, partner max 1 µM) | 0.934 | 0.995 | 0.784 | 0.237 | 0.888 | 0.305 | 1 | 0.687 | 0.238 | 0.156 | 0.228 | 0.308 | 0.362 | 0.348 | 0.782 | 0.227 | 0.427 | 0.753 | 0.835 | 0.241 |
| CC(=O)c1c(C)c2cnc(Nc3ccc(N4CCNCC4)cn3)nc2n(C2CCCC2)c1=O [Palbociclib] + Cn1cnc2c(F)c(Nc3ccc(Br)cc3Cl)c(C(=O)NOCCO)cc21 [Selumetinib] (first compound max 10 µM, 7x7, partner max 10 µM) | 0.387 | 0.667 | 0.333 | 0.193 | 0.412 | 0.128 | 0.997 | 0.71 | 0.275 | 0.574 | 0.277 | 0.457 | 0.218 | 0.107 | 0.658 | 0.199 | 0.383 | 0.47 | 0.448 | 0.29 |
| COc1cccc(OCCCN)c1-c1cc(Nc2cnc(C#N)cn2)n[nH]1 [Prexasertib] + C=CCn1c(=O)c2cnc(Nc3ccc(N4CCN(C)CC4)cc3)nc2n1-c1cccc(C(C)(C)O)n1 [AZD1775] (first compound max 1 µM, partner max 1 µM) | 0.918 | 1 | 0.887 | 0.505 | 0.914 | 0.939 | 1 | 1 | 0.651 | 0.605 | 0.738 | 0.86 | 0.561 | 0.415 | 0.786 | 0.739 | 0.966 | 0.519 | 1 | 0.588 |
| COc1cccc(OCCCN)c1-c1cc(Nc2cnc(C#N)cn2)n[nH]1 [Prexasertib] + CCc1c2c(nc3ccc(O)cc13)-c1cc3c(c(=O)n1C2)COC(=O)[C@]3(O)CC [SN-38] (first compound max 1 µM, 7x7, partner max 0.3 µM) | 0.948 | 1 | 0.994 | 0.685 | 0.998 | 0.898 | 1 | 1 | 0.836 | 0.695 | 0.767 | 0.884 | 0.937 | 0.283 | 0.883 | 0.936 | 0.972 | 0.924 | 1 | 0.802 |
| COc1cccc(OCCCN)c1-c1cc(Nc2cnc(C#N)cn2)n[nH]1 [Prexasertib] + CN(C)CCCOc1ccc(-c2ccc3ncc4c(c3c2)n(C2CCOCC2)c(=O)n4C)cn1 [AZD0156] (first compound max 1 µM, 7x7, partner max 1 µM) | 0.882 | 1 | 0.616 | 0.414 | 0.808 | 0.926 | 0.999 | 1 | 0.485 | 0.574 | 0.725 | 0.735 | 0.493 | 0.345 | 0.792 | 0.441 | 0.914 | 0.391 | 0.994 | 0.384 |
| COc1cccc(OCCCN)c1-c1cc(Nc2cnc(C#N)cn2)n[nH]1 [Prexasertib] + C[C@@H]1COCCN1C2=NC(=NC(=C2)C3(CC3)[S@](=N)(=O)C)C4=C5C=CNC5=NC=C4 [AZD6738] (first compound max 1 µM, 7x7, partner max 10 µM) | 0.884 | 1 | 0.543 | 0.416 | 0.918 | 0.908 | 1 | 1 | 0.691 | 0.569 | 0.791 | 0.785 | 0.514 | 0.294 | 0.799 | 0.398 | 0.933 | 0.436 | 1 | 0.426 |
| COc1cccc(OCCCN)c1-c1cc(Nc2cnc(C#N)cn2)n[nH]1 [Prexasertib] + Cc1cc2ncnn2cc1Nc1ncc2c(n1)n(C1CCOCC1)c(=O)n2C [AZD7648] (first compound max 1 µM, 7x7, partner max 10 µM) | 0.889 | 1 | 0.552 | 0.37 | 0.851 | 0.939 | 0.999 | 1 | 0.458 | 0.596 | 0.725 | 0.776 | 0.48 | 0.309 | 0.776 | 0.405 | 0.937 | 0.444 | 0.992 | 0.324 |
| COc1cccc(OCCCN)c1-c1cc(Nc2cnc(C#N)cn2)n[nH]1 [Prexasertib] + O=C(c1cc(Cc2n[nH]c(=O)c3ccccc23)ccc1F)N1CCN(C(=O)C2CC2)CC1 [Olaparib] (first compound max 1 µM, 7x7, partner max 10 µM) | 0.879 | 1 | 0.552 | 0.342 | 0.897 | 0.87 | 1 | 1 | 0.439 | 0.627 | 0.551 | 0.779 | 0.623 | 0.302 | 0.831 | 0.416 | 0.902 | 0.508 | 0.987 | 0.31 |
| COc1cc2c(cc1OCCCCCOc1cc3c(cc1OC)C(=O)N1C=C(C)C[C@H]1C=N3)N=C[C@@H]1CC(C)=CN1C2=O [SG3199] + O=C(c1cc(Cc2n[nH]c(=O)c3ccccc23)ccc1F)N1CCN(C(=O)C2CC2)CC1 [Olaparib] (first compound max 0.001 µM, 7x7, partner max 10 µM) | 0.253 | 0.185 | 0.245 | 0.0893 | 0.115 | 0.3 | 0.23 | 0.348 | 0.141 | 0.0771 | 0.0777 | 0.102 | 0.115 | 0.0836 | 0.196 | 0.184 | 0.109 | 0.141 | 0.197 | 0.193 |
